Test results taken from ChEMBL document CHEMBL1125968, “5-HT2 antagonist activity of 3-aminomethyltetralones” (Bioorg Med Chem Lett, 1991).

Legend:
Rattus norvegicus = organism: Rattus norvegicus; experiment: Tested for the antagonistic activity against serotonin-induced contractions in rat aorta ring strip of endothelium; format: functional, organism-based; details: read-out: pA2 (converted)
[1] = target: Serotonin 2 (5-HT2) receptor (Rattus norvegicus, UniProt P30994+P08909+P14842); experiment: Tested for the binding affinity towards 5-HT2 receptor measured by [3H]ketanserin binding to frontal cerebral cortex membranes of rat; format: tissue-based, Membrane

| Structure (SMILES) | Kb (Rattus norvegicus) [nM] | Log Ki [1] |
| --- | --- | --- |
| O=C1CC(CN2CCC(C(=O)c3ccc(F)cc3)CC2)Cc2ccccc21 (stereo unspecified) | 13.8 | – |
| COc1ccccc1N1CCN(CC2CC(=O)c3ccccc3C2)CC1 (stereo unspecified) | 513 | -6.48 |
| O=C(CCCN1CCN(CC2CC(=O)c3ccccc3C2)CC1)c1ccc(F)cc1 (stereo unspecified) | – | -7.25 |
| O=C(CCCN1CCN(CC2CC(=O)c3ccc(F)cc3C2)CC1)c1ccc(F)cc1 (stereo unspecified) | 56.2 | -7.29 |
